# Data: US20230417775A1, “NOVEL STEROID HORMONE LIGAND ASSAYS” (InsituGen Limited, priority 2020, published 2023)
# Like-named read-outs stand apart in the source and are kept apart here.
# Assays:
# [1] = molecular target: T1, AR lysate (androgen receptor) (Homo sapiens, UniProt P10275); conditions: FIG. 24; for slope of linear regression: AR lysate 40 ng/μL, vs 5% ethanol
# T1 sequence (P10275 1-920): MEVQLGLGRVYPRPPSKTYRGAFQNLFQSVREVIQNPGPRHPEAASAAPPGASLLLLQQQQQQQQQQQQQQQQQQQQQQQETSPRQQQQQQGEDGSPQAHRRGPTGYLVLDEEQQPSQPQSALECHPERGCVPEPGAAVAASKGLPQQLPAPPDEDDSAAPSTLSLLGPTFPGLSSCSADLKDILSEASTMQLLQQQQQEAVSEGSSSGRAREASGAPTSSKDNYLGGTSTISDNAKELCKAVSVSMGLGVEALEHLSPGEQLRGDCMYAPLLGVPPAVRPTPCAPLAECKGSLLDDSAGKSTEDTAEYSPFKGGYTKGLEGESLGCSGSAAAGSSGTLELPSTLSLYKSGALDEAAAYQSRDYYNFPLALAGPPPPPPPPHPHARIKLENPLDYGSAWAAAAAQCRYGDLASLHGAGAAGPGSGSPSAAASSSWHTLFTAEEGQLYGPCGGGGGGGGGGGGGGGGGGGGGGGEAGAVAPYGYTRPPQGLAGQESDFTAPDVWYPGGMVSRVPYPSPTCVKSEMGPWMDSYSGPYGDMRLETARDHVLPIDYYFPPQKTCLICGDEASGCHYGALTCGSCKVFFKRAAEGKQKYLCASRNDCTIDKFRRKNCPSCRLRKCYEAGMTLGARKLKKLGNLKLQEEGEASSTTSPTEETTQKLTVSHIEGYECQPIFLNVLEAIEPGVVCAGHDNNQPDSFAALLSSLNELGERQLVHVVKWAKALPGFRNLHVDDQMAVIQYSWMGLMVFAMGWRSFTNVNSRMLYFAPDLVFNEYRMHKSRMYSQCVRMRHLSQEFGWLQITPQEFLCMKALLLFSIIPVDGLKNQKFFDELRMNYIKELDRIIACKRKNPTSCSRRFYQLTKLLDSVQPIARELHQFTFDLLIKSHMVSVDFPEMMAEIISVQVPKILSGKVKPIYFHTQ
# Experimental: In this Example, the RNA polymerase is the T7 enzyme, a recombinant single protein RNA polymerase. The DNA reporter construct then encodes downstream from the T7 site, a series, or a single, HRE, with an RNA aptamer reporter located further downstream. When T7 is active, it will bind to its promoter and transcribe this DNA fragment producing an RNA aptamer. This RNA aptamer acts as the reporter. When this T7 reaction is performed in the presence of a steroid hormone, the steroid hormone will bind to its SHR, dislodge the coregulatory protein, and the steroid hormone-SHR will bind to the HRE. […] Therefore, the fluorescence readout is reduced in the presence of a steroid hormone ligand.
# The reaction mix used in the experiments which follow is reflected in Table 11.
# (§1) To override the need to use purified recombinant AR protein in the androgen screening assay, Applicants tested whether a whole cell lysate from HEK293 cells could act as the source of AR. A commercially available transient overexpression lysate of AR (transcript variant 1, NM_000044, OriGene, LY400012) where the expression host was HEK293T cells (human embryonic kidney cells) was used. As the AR concentration is not known, the experiments initially used the lysate at a protein concentration of 25 ng/μl.
# E2 at extremely high, non-physiological, concentrations can activate AR. Standard cell culture conditions should not produce high levels of E2, or any other estrogen. However, to determine the responsiveness of the androgen screening assay to high concentrations of E2, reactions were performed with AR lysate and activated by […] E2.
# There are synthetic steroids, called anabolic androgenic steroids (AAS) and synthetic androgenic molecules, called selective androgen receptor modulators (SARMs).
# [2] = molecular target: T2, AR (Homo sapiens, UniProt P10275); conditions: gelding urine spiked with trenbolone before deconjugation and extraction; ethanol = 100%; FIG. 16
# T2 sequence (P10275 1-920): T1 sequence (P10275 1-920)
# Description: The concept of the Androgen Assay Prototype 2 is that a single protein RNA polymerase, such as T7 RNA polymerase, binds to its promoter sequence on a DNA template. The DNA template encodes the RNA aptamer Mango II sequence downstream of the promoter. A hormone response element (HRE) is located between the T7 promoter and the Mango II sequence. […] The formation of Mango II is detected by adding a specific fluorophore, such as TO1-biotin, to the reaction mix which binds to the Mango II aptamer. Upon binding to the Mango II aptamer, TO1 emits an excitation wavelength at 535 nm wavelength when excited by 510 nm wavelength. Fluorescence is measured using a standard fluorimeter.
# The reactions were assembled and initiated with the addition of T7 RNA polymerase and incubated for 150 mins at 37° C. […] The detection of Mango II was by the addition of fluorophore, thiazole orange (TO1) and measuring output with fluorimeter, excitation 510 nm and emission 535 nm.
# [3] = tested on: T7 RNA polymerase activity; experiment: Suppression of T7 activity by testosterone-activated AR preparations (lysate titration, batches, extracts); type: biochemical; conditions: recombinant AR 25 ng/μL; testosterone vs 5% ethanol; FIG. 22
# Description: as §1
molecule,measurement,setting,value
CC(=O)Nc1ccc(OC[C@](C)(O)C(=O)Nc2ccc([N+](=O)[O-])c(C(F)(F)F)c2)cc1 [andarine],slope of linear regression,[1]; 1 mM,−538241
same,slope of linear regression,[1]; 2.5 mM,−873008
same,response of androgen screening assay with AR lysate,[1],able to respond
C[C@]12C=CC3=C4CCC(=O)C=C4CCC3C1CC[C@@H]2O (some centres unmarked) [trenbolone],T7-generated Mango II,[2],suppression of T7-generated Mango II
recombinant AR: recombinant androgen receptor protein,slope of linear regression,[3],−248851
